Laboratory results from patent publication US20240091226A1, “Forms and Formulations Of A Tyrosine Kinase Non-Receptor 1 (TNK1) Inhibitor” (Sumitomo Pharma Oncology, inc., priority 2021, published 2024).
Converted amounts (≈) assume the structure as drawn. “Also recorded” adds a separate entry of the source. Values belong to the molecule of their own block, whether it stands above or below them.

Experiments:
[1] = Hygroscopicity by dynamic vapor sorption (DVS); type: physicochemical; settings: for Hygroscopicity (%), water uptake: DVS, 25° C./80% RH; for Form Change after DVS: XRPD before and after DVS
Experimental: Hygroscopicity. DVS isotherm plot was collected at 25° C. to investigate the solid form stability as a function of humidity. All of Freebase Type E+F, L-Malate Type B, Succinate Type B and Mesylate Type A were equilibrated at ambient humidity (70% RH or 80% RH) to prevent form change before testing.
DVS. Dynamic Vapor Sorption (DVS) was measured via a SMS (Surface Measurement Systems) DVS Intrinsic. The relative humidity at 25° C. was calibrated against deliquescence point of LiCl, Mg(NO3)2 and KCl.

[2] = Kinetic solubility in water, SGF and FaSSIF at 37° C.; type: physicochemical; settings: for Kinetic solubility in water (in words): Freebase Type E+F as control
Experimental: Kinetic Solubility. Kinetic solubility of salt leads was measured in water, SGF and FaSSIF to evaluate their solubility and disproportionation risk, using Freebase Type E+F (818718-01-A) as control. […] After centrifugation, supernatants were collected for HPLC and pH tests, and wet cakes were collected for XRPD characterization.

[3] = Two-week solid-state stability (XRPD, HPLC purity); type: physicochemical; settings: two weeks; for Stress stability / solid-state physical and chemical stability (in words): 25° C./60% RH and 40° C./75% RH (open); for Purity (area %) after storage / Purity vs Initial (%): open
Experimental: Solid-state Stability. Solid-state stability of Freebase Type E+F (818718-01-A), L-Malate Type B (818718-21-A1) and Mesylate Type A (818718-21-A5) were evaluated under 25° C./60% RH and 40° C./75% RH (open) for two weeks. Stability samples were characterized by XRPD to check any solid form change, and by HPLC to check purity change.

Apc^Min+/− mice = assay: ApcMin mouse efficacy model; type: in vivo
Experimental: TNK1 upregulation is reported to play a role in the pathogenic process of intestinal barrier disruption in a transgenic mice model of increased TNK1 expression/activation (PMID: 30320600). Therefore, the efficacy of the compound of structural formula I was evaluated in germline mutant mouse model of intestinal neoplasia and cachexia, Apc^Min+/− model, which is also known to induce gut barrier dysfunction (PMID: 21914473). Apc^Min+/− mice are reported to start the development of tumors at approximately 4 weeks of age. Twenty female Apc^Min+/− mice (JAX Stock No: 002020) were enrolled in the study at the age of 10 weeks. Randomization was done based on the body weight, and animals were divided into four treatment groups (5 mice/group). […] Celecoxib is a COX-2 inhibitor, and was used as a positive control because it has been reported to prevent and regress adenomas in APC model (PMID: 11016626). Mice were sacrificed 2 hours after the last dose of total 10 weeks of dosing (71 days), at the age of 20 weeks. After dosing started, the animals were checked daily for morbidity and mortality.

SMILES: COc1cc(N2CCN(C)CC2)c(Cl)cc1Nc1ncc(Cl)c(Nc2cccnc2N2CCCC2=O)n1 [Mesylate Type A]
Hygroscopicity (%), water uptake [1]: 2.74% | Form Change after DVS [1]: No form change and No | FC: form change ([2]; FaSSIF, 1 hr): new form with low crystallinity and Yes | S: solubility ([2]; FaSSIF, 1 hr): 370 µg/mL | pH: final pH ([2]; FaSSIF, 1 hr): 6.4 | FC: form change ([2]; FaSSIF, 4 hrs): Yes | S: solubility ([2]; FaSSIF, 4 hrs): 360 µg/mL | pH: final pH ([2]; FaSSIF, 4 hrs): 6.3 | FC: form change ([2]; FaSSIF, 24 hrs): Yes | S: solubility ([2]; FaSSIF, 24 hrs): 340 µg/mL | pH: final pH ([2]; FaSSIF, 24 hrs): 6.2 | S: solubility ([2]; H2O, 1 hr): 7500 µg/mL | pH: final pH ([2]; H2O, 1 hr): 6.1 | S: solubility ([2]; H2O, 4 hrs): 7500 µg/mL | pH: final pH ([2]; H2O, 4 hrs): 6.2 | S: solubility ([2]; H2O, 24 hrs): 7400 µg/mL | pH: final pH ([2]; H2O, 24 hrs): 6.0 | Kinetic solubility in SGF (in words) ([2]; SGF): showed relatively high solubility in SGF at 37 °C L-Malate | S: solubility ([2]; SGF, 1 hr): 8200 µg/mL | pH: final pH ([2]; SGF, 1 hr): 2.5 | S: solubility ([2]; SGF, 4 hrs): 8000 µg/mL | pH: final pH ([2]; SGF, 4 hrs): 2.6 | S: solubility ([2]; SGF, 24 hrs): 7400 µg/mL | pH: final pH ([2]; SGF, 24 hrs): 2.5 | Kinetic solubility in water (in words) [2]: increased solubility | Stress stability / solid-state physical and chemical stability (in words) [3]: good physical and chemical stability; also recorded: good physicochemical stability; also recorded: good physiochemical stability | Purity (area %) after storage ([3]; 25° C./60% RH): 99.31 area % | Purity vs Initial (%) ([3]; 25° C./60% RH): 100.1% | Purity (area %) after storage ([3]; 40° C./75% RH): 99.43 area % | Purity vs Initial (%) ([3]; 40° C./75% RH): 100.2%

SMILES: COc1cc(N2CCN(C)CC2)c(Cl)cc1Nc1ncc(Cl)c(Nc2cccnc2N2CCCC2=O)n1 [L-Malate Type B]
Hygroscopicity (%), water uptake [1]: 3.00% | Form Change after DVS [1]: No form change and No | S: solubility ([2]; FaSSIF, 1 hr): 7200 µg/mL | pH: final pH ([2]; FaSSIF, 1 hr): 5.0 | S: solubility ([2]; FaSSIF, 4 hrs): 6900 µg/mL | pH: final pH ([2]; FaSSIF, 4 hrs): 4.9 | S: solubility ([2]; FaSSIF, 24 hrs): 7400 µg/mL | pH: final pH ([2]; FaSSIF, 24 hrs): 4.9 | Kinetic solubility in FaSSIF (in words) ([2]; FaSSIF, compared with Mesylate Type A and Freebase Type E+F): Type B showed much higher solubility than Mesylate Type A | S: solubility ([2]; H2O, 1 hr): 7100 µg/mL | pH: final pH ([2]; H2O, 1 hr): 4.0 | S: solubility ([2]; H2O, 4 hrs): 7200 µg/mL | pH: final pH ([2]; H2O, 4 hrs): 4.0 | S: solubility ([2]; H2O, 24 hrs): 6700 µg/mL | pH: final pH ([2]; H2O, 24 hrs): 4.1 | Kinetic solubility in SGF (in words) ([2]; SGF): showed relatively high solubility in SGF at 37 °C L-Malate | S: solubility ([2]; SGF, 1 hr): 7600 µg/mL | pH: final pH ([2]; SGF, 1 hr): 3.2 | S: solubility ([2]; SGF, 4 hrs): 7700 µg/mL | pH: final pH ([2]; SGF, 4 hrs): 3.1 | S: solubility ([2]; SGF, 24 hrs): 6900 µg/mL | pH: final pH ([2]; SGF, 24 hrs): 3.2 | Kinetic solubility in water (in words) [2]: increased solubility | Stress stability / solid-state physical and chemical stability (in words) [3]: good physical and chemical stability; also recorded: good physicochemical stability | Purity (area %) after storage ([3]; 25° C./60% RH): 98.97 area % | Purity vs Initial (%) ([3]; 25° C./60% RH): 100.0% | Purity (area %) after storage ([3]; 40° C./75% RH): 98.96 area % | Purity vs Initial (%) ([3]; 40° C./75% RH): 100.0%

SMILES: Cc1ccc(-c2cc(C(F)(F)F)nn2-c2ccc(S(N)(=O)=O)cc2)cc1 [celecoxib, reference compound]
reduction of spleen size compared to vehicle (Apc^Min+/− mice; 120 mg/kg): approximately 26% | decrease in number of polyps in the intestine compared to vehicle (Apc^Min+/− mice; 120 mg/kg once daily oral gavage, 10 weeks, female Apc^Min+/− mice): approximately 90%

Second part, led by results:

Hygroscopicity (%), water uptake [1]: 1.55% | Hygroscopicity (%), water uptake ([1]; listed as Freebase Type E + F): hygroscopic (1.55) % | Form Change after DVS [1]: No form change | Form Change after DVS ([1]; listed as Freebase Type E + F): No | FC: form change ([2]; FaSSIF, 1 hr): Yes | S: solubility ([2]; FaSSIF, 1 hr): 170 µg/mL | pH: final pH ([2]; FaSSIF, 1 hr): 6.6 | FC: form change ([2]; FaSSIF, 4 hrs): Yes | S: solubility ([2]; FaSSIF, 4 hrs): 180 µg/mL | pH: final pH ([2]; FaSSIF, 4 hrs): 5.6 | FC: form change ([2]; FaSSIF, 24 hrs): Yes | S: solubility ([2]; FaSSIF, 24 hrs): 110 µg/mL | pH: final pH ([2]; FaSSIF, 24 hrs): 6.5 | FC: form change ([2]; H2O, 1 hr): Yes | S: solubility ([2]; H2O, 1 hr): 1.2 µg/mL | pH: final pH ([2]; H2O, 1 hr): 8.8 | FC: form change ([2]; H2O, 4 hrs): Yes | S: solubility ([2]; H2O, 4 hrs): 1.2 µg/mL | pH: final pH ([2]; H2O, 4 hrs): 8.6 | FC: form change ([2]; H2O, 24 hrs): Yes | S: solubility ([2]; H2O, 24 hrs): 2.4 µg/mL | pH: final pH ([2]; H2O, 24 hrs): 8.4 | Kinetic solubility in SGF (in words) ([2]; SGF): relatively high solubility | solubility at 1 h ([2]; SGF, 37 °C, simulated gastric fluid, thermodynamic from solid, SGF, 1 hr, read-out: S: solubility): 7100 µg/mL (≈ 13.1 mM) | solubility at 4 h ([2]; SGF, 37 °C, simulated gastric fluid, thermodynamic from solid, SGF, 4 hrs, read-out: S: solubility): 7200 µg/mL (≈ 13.2 mM) | solubility at 24 h ([2]; SGF, 37 °C, simulated gastric fluid, thermodynamic from solid, SGF, 24 hrs, read-out: S: solubility): 7200 µg/mL (≈ 13.2 mM) | FC: form change ([2]; SGF, 1 hr): Yes | pH: final pH ([2]; SGF, 1 hr): 5.4 | FC: form change ([2]; SGF, 4 hrs): Yes | pH: final pH ([2]; SGF, 4 hrs): 5.4 | FC: form change ([2]; SGF, 24 hrs): Yes | pH: final pH ([2]; SGF, 24 hrs): 6.2 | form after kinetic solubility test ([2]; all the three media (water, SGF, FaSSIF)): turned to Freebase Type E | Purity (area %) after storage ([3]; 25° C./60% RH): 98.64 area % | Purity vs Initial (%) ([3]; 25° C./60% RH): 100.0% | Purity (area %) after storage ([3]; 40° C./75% RH): 98.75 area % | Purity vs Initial (%) ([3]; 40° C./75% RH): 100.1%
SMILES: COc1cc(N2CCN(C)CC2)c(Cl)cc1Nc1ncc(Cl)c(Nc2cccnc2N2CCCC2=O)n1 [Freebase Type E+F]
Hygroscopicity (class) ([1]; based on water uptake at 25° C./80% RH): slightly hygroscopic (slightly hygroscopic - 0.2~2%) | Kinetic solubility in SGF (in words) ([2]; SGF, listed as Freebase Type E + F): showed relatively high solubility in SGF at 37 °C L-Malate | Stress stability / solid-state physical and chemical stability (in words) [3]: good physical and chemical stability; also recorded: good physicochemical stability

Hygroscopicity (%), water uptake [1]: 8.22% | Form Change after DVS [1]: No form change
SMILES: COc1cc(N2CCN(C)CC2)c(Cl)cc1Nc1ncc(Cl)c(Nc2cccnc2N2CCCC2=O)n1 [Succinate Type B]
